How the values were obtained:
CDK4 = CDK4 (Homo sapiens (Human), UniProt P11802); assay: Phospho-Serine 795 Rb ELISA assay in JEKO-1 cells; assay type: cell-based; conditions: overnight treatment, phospho-Rb S795, read-out: CDK4 pRB S795 ELISA JEKO-1 cells IC50
CDK4/Cyclin D1 = CDK4/Cyclin D1 (Homo sapiens (Human), UniProt P11802); assay: CDK4/Cyclin D1 mobility shift assay; assay type: biochemical; conditions: activated CDK4/Cyclin D1, 3.5 mM ATP, Morrison fit; read-out: CDK4D1 Ki
CDK6/Cyclin D3 = CDK6/Cyclin D3 (Homo sapiens (Human), UniProt Q00534); assay: CDK6/Cyclin D3 mobility shift assay; assay type: biochemical; conditions: activated CDK6/Cyclin D3, 3.5 mM ATP, Morrison fit; read-out: CDK6_D3 Ki
Chain of CDK6/Cyclin D3 (Q00534 whole entry): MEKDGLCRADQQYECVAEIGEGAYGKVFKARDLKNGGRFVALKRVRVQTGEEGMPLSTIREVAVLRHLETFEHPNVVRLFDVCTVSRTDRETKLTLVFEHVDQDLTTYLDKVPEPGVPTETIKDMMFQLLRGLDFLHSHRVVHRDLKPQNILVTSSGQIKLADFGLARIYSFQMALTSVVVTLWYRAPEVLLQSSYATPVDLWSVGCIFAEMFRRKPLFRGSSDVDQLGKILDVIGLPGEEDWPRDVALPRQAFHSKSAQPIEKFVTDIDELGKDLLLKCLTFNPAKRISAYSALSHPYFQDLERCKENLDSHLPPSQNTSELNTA
Chain of CDK6/Cyclin D3 (P30281 whole entry partner): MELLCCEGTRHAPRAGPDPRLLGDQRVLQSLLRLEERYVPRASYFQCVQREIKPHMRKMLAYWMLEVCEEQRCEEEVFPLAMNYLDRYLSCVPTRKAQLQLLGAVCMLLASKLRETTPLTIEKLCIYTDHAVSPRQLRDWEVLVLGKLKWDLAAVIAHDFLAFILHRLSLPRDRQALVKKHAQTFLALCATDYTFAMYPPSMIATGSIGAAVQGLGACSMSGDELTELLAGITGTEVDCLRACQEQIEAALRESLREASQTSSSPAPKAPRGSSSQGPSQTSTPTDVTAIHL

CDK6 = CDK6 (Homo sapiens (Human), UniProt Q00534); assay: Phospho-Serine 795 Rb ELISA assay in MV4-11 cells; assay type: cell-based; conditions: overnight treatment, phospho-Rb S795, read-out: CDK6 pRB S795 ELISA MV4-11 cells IC50
Chain of CDK6 (Q00534 whole entry): as the sequence (Q00534 whole entry) above
Chain of CDK6 (P30281 whole entry partner): as the sequence (P30281 whole entry partner) above

Chain of CDK4 (P11802 2-303): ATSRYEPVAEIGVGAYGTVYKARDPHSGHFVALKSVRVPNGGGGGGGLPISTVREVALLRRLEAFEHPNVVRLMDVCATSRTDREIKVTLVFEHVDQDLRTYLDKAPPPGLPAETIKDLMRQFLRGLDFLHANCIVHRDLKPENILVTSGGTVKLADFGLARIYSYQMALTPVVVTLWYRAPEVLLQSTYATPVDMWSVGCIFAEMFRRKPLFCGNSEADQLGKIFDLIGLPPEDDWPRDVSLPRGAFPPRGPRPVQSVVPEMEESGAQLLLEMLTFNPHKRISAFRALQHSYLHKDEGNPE
Chain of CDK4 (P24385 whole entry partner): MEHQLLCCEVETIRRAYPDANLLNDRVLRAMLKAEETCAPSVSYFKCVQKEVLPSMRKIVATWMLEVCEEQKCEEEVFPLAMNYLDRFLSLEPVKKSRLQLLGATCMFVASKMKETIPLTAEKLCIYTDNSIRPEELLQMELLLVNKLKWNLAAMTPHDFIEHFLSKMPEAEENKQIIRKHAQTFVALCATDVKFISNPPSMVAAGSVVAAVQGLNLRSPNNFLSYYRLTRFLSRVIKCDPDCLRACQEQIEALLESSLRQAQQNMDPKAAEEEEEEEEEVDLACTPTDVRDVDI
Chain of CDK4/Cyclin D1 (P11802 whole entry): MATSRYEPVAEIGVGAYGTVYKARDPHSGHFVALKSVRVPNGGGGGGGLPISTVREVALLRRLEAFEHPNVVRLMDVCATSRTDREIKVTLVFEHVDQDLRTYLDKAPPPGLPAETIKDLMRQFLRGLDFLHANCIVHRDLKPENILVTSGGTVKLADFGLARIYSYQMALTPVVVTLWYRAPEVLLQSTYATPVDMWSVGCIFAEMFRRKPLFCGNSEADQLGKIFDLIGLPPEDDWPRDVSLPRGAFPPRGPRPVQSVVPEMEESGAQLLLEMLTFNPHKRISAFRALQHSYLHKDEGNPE
Chain of CDK4/Cyclin D1 (P24385 whole entry partner): as the sequence (P24385 whole entry partner) above

Row | SMILES | IC50 (CDK4) | Ki (CDK4/Cyclin D1) | Ki (CDK6/Cyclin D3) | IC50 (CDK6)
1 | CNCC(=O)N1CC[C@@H](Nc2ncc(F)c(-c3cc(F)c4nc(C)n(C(C)C)c4c3)n2)[C@H](O)C1 [Example F23, 1-[(3R,4R)-4-({5-fluoro-4-[4-fluoro-2-methyl-1-(propan-2-yl)-1H-benzimidazol-6-yl]pyrimidin-2-yl}amino)-3-hydroxypiperidin-1-yl]-2-(methylamino)ethan-1-one] | 692 nM | 1 nM | 11 nM | 1320 nM
2 | CNCC(=O)N1CC[C@@H](Nc2ncc(Cl)c(-c3cc(F)c4ncn(C(C)(C)C)c4c3)n2)[C@H](O)C1 [Example F25, 1-[(3R,4R)-4-{[4-(1-tert-butyl-4-fluoro-1H-benzimidazol-6-yl)-5-chloropyrimidin-2-yl]amino}-3-hydroxypiperidin-1-yl]-2-(methylamino)ethan-1-one] | 455 nM | 1.2 nM | 19.3 nM | 455 nM
3 | CC(C)(C)n1cnc2c(F)cc(-c3nc(N[C@@H]4CCN(C(=O)C5(F)CNC5)C[C@H]4O)ncc3Cl)cc21 [Example F26, [(3R,4R)-4-{[4-(1-tert-butyl-4-fluoro-1H-benzimidazol-6-yl)-5-chloropyrimidin-2-yl]amino}-3-hydroxypiperidin-1-yl](3-fluoroazetidin-3-yl)methanone] | 143 nM | 0.1 nM | 4.6 nM | 182 nM
4 | CC(C)n1cnc2c(F)cc(-c3nc(N[C@@H]4CCN(C(=O)C5(F)CNC5)C[C@H]4O)ncc3Cl)cc21 [Example F27, [(3R,4R)-4-({5-chloro-4-[4-fluoro-1-(propan-2-yl)-1H-benzimidazol-6-yl]pyrimidin-2-yl}amino)-3-hydroxypiperidin-1-yl](3-fluoroazetidin-3-yl)methanone] | 60.8 nM | 0.5 nM | 5.1 nM | 188 nM
5 | CC(C)n1cnc2c(F)cc(-c3nc(N[C@@H]4CCN(C(=O)C5(N)CC5)C[C@H]4O)ncc3Cl)cc21 [Example F28, (1-aminocyclopropyl)[(3R,4R)-4-({5-chloro-4-[4-fluoro-1-(propan-2-yl)-1H-benzimidazol-6-yl]pyrimidin-2-yl}amino)-3-hydroxypiperidin-1-yl]methanone] | 191 nM | 2.2 nM | 22.3 nM | 745 nM
6 | CC(C)n1cnc2c(F)cc(-c3nc(N[C@@H]4CCN(C(=O)C5(N)CC(F)(F)C5)C[C@H]4O)ncc3Cl)cc21 [Example F29, (1-amino-3,3-difluorocyclobutyl)[(3R,4R)-4-({5-chloro-4-[4-fluoro-1-(propan-2-yl)-1H-benzimidazol-6-yl]pyrimidin-2-yl}amino)-3-hydroxypiperidin-1-yl]methanone] | 246 nM | 1.8 nM | 23.3 nM | 644 nM
7 | CC(C)(C)n1cnc2c(F)cc(-c3nc(N[C@@H]4CCN(C(=O)C5(N)CC(F)(F)C5)C[C@H]4O)ncc3Cl)cc21 [Example F30, (1-amino-3,3-difluorocyclobutyl)[(3R,4R)-4-{[4-(1-tert-butyl-4-fluoro-1H-benzimidazol-6-yl)-5-chloropyrimidin-2-yl]amino}-3-hydroxypiperidin-1-yl]methanone] | 66.1 nM | 0.5 nM | 12.5 nM | 377 nM
8 | CC(C)(C)n1cnc2c(F)cc(-c3cc(N[C@@H]4CCN(C(=O)C(F)(F)CN)C[C@H]4O)ncc3Cl)cc21 [Example F32, 3-amino-1-[(3R,4R)-4-{[4-(1-tert-butyl-4-fluoro-1H-benzimidazol-6-yl)-5-chloropyridin-2-yl]amino}-3-hydroxypiperidin-1-yl]-2,2-difluoropropan-1-one] | 172 nM | 0.9 nM | 12.8 nM | 628 nM
9 | CNC(=O)CN1CC[C@@H](Nc2cc(-c3ccc4ncn(C(C)(C)C)c4n3)c(Cl)cn2)[C@H](O)C1 [Example F33, 2-[(3R,4R)-4-{[4-(3-tert-butyl-3H-imidazo[4,5-b]pyridin-5-yl)-5-chloropyridin-2-yl]amino}-3-hydroxypiperidin-1-yl]-N-methylacetamide] | 24.6 nM | 0.2 nM | 5.2 nM | 113 nM

Now from value to molecule:

Row | IC50 (CDK4) | Ki (CDK4/Cyclin D1) | Ki (CDK6/Cyclin D3) | IC50 (CDK6) | SMILES
10 | 137 nM | 2.4 nM | 127 nM | 858 nM | CC(C)n1c(CN2CC(C)(O)C2)nc2c(F)cc(-c3nc(N[C@@H]4CCOC[C@H]4O)ncc3Cl)cc21 [Example H01, 1,5-anhydro-3-[(5-chloro-4-{4-fluoro-2-[(3-hydroxy-3-methylazetidin-1-yl)methyl]-1-(propan-2-yl)-1H-benzimidazol-6-yl}pyrimidin-2-yl)amino]-2,3-dideoxy-D-threo-pentitol]
11 | 52.1 nM | 0.8 nM | 20 nM | 118 nM | CC(C)n1c(CN(C)C)nc2c(F)cc(-c3nc(N[C@@H]4CCOC[C@H]4O)ncc3Cl)cc21 [Example H02, 1,5-anhydro-3-[(5-chloro-4-{2-[(dimethylamino)methyl]-4-fluoro-1-(propan-2-yl)-1H-benzimidazol-6-yl}pyrimidin-2-yl)amino]-2,3-dideoxy-D-threo-pentitol]
12 | 155 nM | 1.8 nM | 66.9 nM | 423 nM | CC(C)n1c(CN2CC(O)C2)nc2c(F)cc(-c3nc(N[C@@H]4CCOC[C@H]4O)ncc3Cl)cc21 [Example H03, 1,5-anhydro-3-[(5-chloro-4-{4-fluoro-2-[(3-hydroxyazetidin-1-yl)methyl]-1-(propan-2-yl)-1H-benzimidazol-6-yl}pyrimidin-2-yl)amino]-2,3-dideoxy-D-threo-pentitol]
13 | 63.4 nM | 0.8 nM | 38.2 nM | 221 nM | CC(C)n1c(CN2C[C@@](C)(O)[C@@H]2C)nc2c(F)cc(-c3nc(N[C@@H]4CCOC[C@H]4O)ncc3Cl)cc21 [Example H04, 1,5-anhydro-3-({5-chloro-4-[4-fluoro-2-{[(2S,3R)-3-hydroxy-2,3-dimethylazetidin-1-yl]methyl}-1-(propan-2-yl)-1H-benzimidazol-6-yl]pyrimidin-2-yl}amino)-2,3-dideoxy-D-threo-pentitol]
14 | 249 nM | 4.5 nM | 93.3 nM | 1470 nM | CC(C)n1c(CNC2COC2)nc2c(F)cc(-c3nc(N[C@@H]4CCOC[C@H]4O)ncc3Cl)cc21 [Example H05, 1,5-anhydro-3-({5-chloro-4-[4-fluoro-2-{[(oxetan-3-yl)amino]methyl}-1-(propan-2-yl)-1H-benzimidazol-6-yl]pyrimidin-2-yl}amino)-2,3-dideoxy-D-threo-pentitol]
15 | 79.6 nM | 1.1 nM | 35.6 nM | 343 nM | CC(C)n1c(CN2CC(F)C2)nc2c(F)cc(-c3nc(N[C@@H]4CCOC[C@H]4O)ncc3Cl)cc21 [Example H06, 1,5-anhydro-3-[(5-chloro-4-{4-fluoro-2-[(3-fluoroazetidin-1-yl)methyl]-1-(propan-2-yl)-1H-benzimidazol-6-yl}pyrimidin-2-yl)amino]-2,3-dideoxy-D-threo-pentitol]
16 | 48.3 nM | 1.4 nM | 43 nM | 409 nM | CC(C)n1c(CN2CCC2)nc2c(F)cc(-c3nc(N[C@@H]4CCOC[C@H]4O)ncc3Cl)cc21 [Example H07, 1,5-anhydro-3-[(4-{2-[(azetidin-1-yl)methyl]-4-fluoro-1-(propan-2-yl)-1H-benzimidazol-6-yl}-5-chloropyrimidin-2-yl)amino]-2,3-dideoxy-D-threo-pentitol]
17 | 35.6 nM | 1.2 nM | 44.5 nM | 306 nM | CC(C)NCc1nc2c(F)cc(-c3nc(N[C@@H]4CCOC[C@H]4O)ncc3Cl)cc2n1C(C)C [Example H08, 1,5-anhydro-3-({5-chloro-4-[4-fluoro-1-(propan-2-yl)-2-{[(propan-2-yl)amino]methyl}-1H-benzimidazol-6-yl]pyrimidin-2-yl}amino)-2,3-dideoxy-D-threo-pentitol]
18 | 205 nM | 0.9 nM | 18.6 nM | 230 nM | CC(C)n1c(CNC2COC2)nc2c(F)cc(-c3nc(N[C@@H]4CCN(S(C)(=O)=O)C[C@H]4O)ncc3Cl)cc21 [Example H09, (3R,4R)-4-({5-chloro-4-[4-fluoro-2-{[(oxetan-3-yl)amino]methyl}-1-(propan-2-yl)-1H-benzimidazol-6-yl]pyrimidin-2-yl}amino)-1-(methanesulfonyl)piperidin-3-ol]
19 | 14.9 nM | 0.5 nM | 16.4 nM | 51.1 nM | CC(C)NCc1nc2c(F)cc(-c3nc(N[C@@H]4CCN(S(C)(=O)=O)C[C@H]4O)ncc3Cl)cc2n1C(C)C [Example H10, (3R,4R)-4-({5-chloro-4-[4-fluoro-1-(propan-2-yl)-2-{[(propan-2-yl)amino]methyl}-1H-benzimidazol-6-yl]pyrimidin-2-yl}amino)-1-(methanesulfonyl)piperidin-3-ol]
20 | 43.4 nM | 0.7 nM | 22.1 nM | 295 nM | CC(C)n1c(CNC2CC2)nc2c(F)cc(-c3nc(N[C@@H]4CCOC[C@H]4O)ncc3Cl)cc21 [Example H11, 1,5-anhydro-3-[(5-chloro-4-{2-[(cyclopropylamino)methyl]-4-fluoro-1-(propan-2-yl)-1H-benzimidazol-6-yl}pyrimidin-2-yl)amino]-2,3-dideoxy-D-threo-pentitol]
